ChEMBL document CHEMBL3046242, “Synthesis and evaluation of thiopyrano[3,4-c]quinoline-9-carboxamide derivatives as inhibitors of poly(ADP-ribose) polymerase-1 (PARP-1)” (Med Chem Res, 2012)

Tests used:
[1] = biological target: T1, Poly [ADP-ribose] polymerase 1 (Homo sapiens, UniProt P09874); experiment: Inhibition of PARP-1 (unknown origin) expressed in CHO-K1 cells assessed as depletion of NAD(P)H after 2 hr by CCK-8 assay; format: cell-based
[2] = biological target: T1, Poly [ADP-ribose] polymerase 1; experiment: Inhibition of PARP-1 (unknown origin) assessed as inhibition of biotinylated poly(ADP-ribose) onto histone proteins after 30 min by colorimetry
[3] = Half life in Homo sapiens (human) liver microsomes at 1 uM by LC/MS/MS analysis; format: ADME
[4] = Clearance in Rattus norvegicus Sprague-Dawley (rat) at 5 mg/kg, iv; format: ADME, organism-based; parameters: dose 5 mg/kg, route intravenous; conditions: in vivo
[5] = Half life in Rattus norvegicus Sprague-Dawley (rat) at 5 mg/kg, iv; format: ADME, organism-based; parameters: dose 5 mg/kg, route intravenous; conditions: in vivo
[6] = AUC (0 to infinity) in Rattus norvegicus Sprague-Dawley (rat) at 5 mg/kg, iv; format: ADME, organism-based; parameters: time infinity, dose 5 mg/kg, route intravenous; conditions: plasma
[7] = Solubility of the compound in water; format: physicochemical

T1 sequence (P09874 whole entry): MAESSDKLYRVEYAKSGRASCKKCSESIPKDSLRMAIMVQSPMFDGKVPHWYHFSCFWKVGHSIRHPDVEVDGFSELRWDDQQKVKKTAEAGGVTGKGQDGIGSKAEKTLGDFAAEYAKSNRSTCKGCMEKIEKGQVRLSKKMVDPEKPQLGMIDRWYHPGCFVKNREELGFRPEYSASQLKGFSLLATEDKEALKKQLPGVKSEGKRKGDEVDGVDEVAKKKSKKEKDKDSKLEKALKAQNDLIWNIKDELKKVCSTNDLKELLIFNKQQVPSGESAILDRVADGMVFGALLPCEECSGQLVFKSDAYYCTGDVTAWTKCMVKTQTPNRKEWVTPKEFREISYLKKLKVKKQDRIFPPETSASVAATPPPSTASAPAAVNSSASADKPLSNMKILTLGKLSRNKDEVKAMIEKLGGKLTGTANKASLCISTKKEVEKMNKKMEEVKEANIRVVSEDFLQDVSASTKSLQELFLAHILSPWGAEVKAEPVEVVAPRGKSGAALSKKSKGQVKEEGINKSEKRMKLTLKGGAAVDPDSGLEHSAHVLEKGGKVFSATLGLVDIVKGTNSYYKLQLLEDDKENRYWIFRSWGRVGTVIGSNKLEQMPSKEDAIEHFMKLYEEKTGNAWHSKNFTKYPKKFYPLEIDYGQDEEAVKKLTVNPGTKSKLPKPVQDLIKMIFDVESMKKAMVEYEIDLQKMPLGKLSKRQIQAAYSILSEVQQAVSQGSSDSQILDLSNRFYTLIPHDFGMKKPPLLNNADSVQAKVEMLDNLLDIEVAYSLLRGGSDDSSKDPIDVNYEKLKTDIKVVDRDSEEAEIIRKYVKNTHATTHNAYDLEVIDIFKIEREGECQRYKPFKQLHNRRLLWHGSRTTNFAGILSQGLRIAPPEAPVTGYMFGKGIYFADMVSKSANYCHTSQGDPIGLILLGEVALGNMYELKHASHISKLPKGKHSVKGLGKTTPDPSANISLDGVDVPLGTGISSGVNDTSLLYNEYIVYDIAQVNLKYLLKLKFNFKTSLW

Structure (SMILES)	ED50 [1] [nM]	IC50 [2] [nM]	also measured
O=C(NCCN1CCOCC1)c1ccc2[nH]c(=O)c3c(c2c1)CCSC3	> 30000	60	–
CCCCCCN1CCN(C(=O)c2ccc3[nH]c(=O)c4c(c3c2)CCSC4)CC1	2910	94	–
NCCNC(=O)c1ccc2[nH]c(=O)c3c(c2c1)CCSC3	> 30000	17	–
O=C(c1ccc2[nH]c(=O)c3c(c2c1)CCSC3)N1CCN(C2CCCC2)CC1	550	47	half-life at 1 µM [3]: 14.5 min
CCCN1CCN(C(=O)c2ccc3[nH]c(=O)c4c(c3c2)CCSC4)CC1	540	45	clearance [4]: 63.3 mL/min/kg; half-life at 1 µM [3]: 41.7 min; half-life [5]: 84 min; AUC(0-inf) [6]: 1300 ng·h/mL; solubility [7]: > 1000 µg/mL
O=C(NCCN1CCN(c2ccccc2)CC1)c1ccc2[nH]c(=O)c3c(c2c1)CCSC3	4020	166	–
O=C(NCCN1CCCCC1)c1ccc2[nH]c(=O)c3c(c2c1)CCSC3	2810	58	–
O=C(c1ccc2[nH]c(=O)c3c(c2c1)CCSC3)N1CCN(C2CCCCCC2)CC1	500	67	–
O=C(c1ccc2[nH]c(=O)c3c(c2c1)CCSC3)N1CCN(CCCC(F)(F)F)CC1	2410	134	–
O=C(c1ccc2[nH]c(=O)c3c(c2c1)CCSC3)N1CCNCC1	> 30000	8	–
O=C(c1ccc2[nH]c(=O)c3c(c2c1)CCSC3)N1CCN(c2ccccc2)CC1	1290	234	–
O=C(NCCN1CCNCC1)c1ccc2[nH]c(=O)c3c(c2c1)CCSC3	> 30000	36	–
CN1CCN(C(=O)c2ccc3[nH]c(=O)c4c(c3c2)CCSC4)CC1	2530	188	–
CCCCN1CCN(C(=O)c2ccc3[nH]c(=O)c4c(c3c2)CCSC4)CC1	770	42	–
O=C(c1ccc2[nH]c(=O)c3c(c2c1)CCSC3)N1CCCCC1	1260	175	–
CCCCCN1CCN(C(=O)c2ccc3[nH]c(=O)c4c(c3c2)CCSC4)CC1	610	79	–
NCCCNC(=O)c1ccc2[nH]c(=O)c3c(c2c1)CCSC3	> 30000	30	–
O=C(c1ccc2[nH]c(=O)c3c(c2c1)CCSC3)N1CCN(Cc2ccccc2)CC1	2510	187	–
O=C(c1ccc2[nH]c(=O)c3c(c2c1)CCSC3)N1CCN(c2ccncc2)CC1	> 30000	20	–
CC(C)CCN1CCN(C(=O)c2ccc3[nH]c(=O)c4c(c3c2)CCSC4)CC1	840	65	half-life at 1 µM [3]: 15.9 min
NCCCCNC(=O)c1ccc2[nH]c(=O)c3c(c2c1)CCSC3	> 30000	27	–
CCCC(C)N1CCN(C(=O)c2ccc3[nH]c(=O)c4c(c3c2)CCSC4)CC1 (configuration not stated)	460	40	–
CCOC(=O)c1ccc2[nH]c(=O)c3c(c2c1)CCSC3	–	536	–
O=C(O)c1ccc2[nH]c(=O)c3c(c2c1)CCSC3	–	78	–
CCN1CCN(C(=O)c2ccc3[nH]c(=O)c4c(c3c2)CCSC4)CC1	2000	47	–
O=C(c1ccc2[nH]c(=O)c3c(c2c1)CCSC3)N1CCN(C2CCCCC2)CC1	320	68	–
O=C(NCCN1CCN(c2ccncc2)CC1)c1ccc2[nH]c(=O)c3c(c2c1)CCSC3	> 30000	44	–
O=C1CC2(CCCC2)CC(=O)N1CCCCN1CCN(c2ncccn2)CC1 [BUSPIRONE]	–	–	half-life at 1 µM [3]: 4 min
O=C(c1ccc2[nH]c(=O)c3c(c2c1)CCSC3)N1CCN(CCc2ccccc2)CC1	2190	19	–
